Measured values taken from paper PMC10157890, “Lysine Deacetylase Substrate Selectivity: Distinct Interaction Surfaces Drive Positive and Negative Selection for Residues Following Acetyllysine” (Biochemistry, 2023).

What was measured:
[1] = target: T1, full-length human KDAC6 (Homo sapiens, UniProt Q9UBN7); experiment: Activity of KDAC6 with putative substrate peptides (verification of substrate preferences); format: biochemical; conditions: endpoint, 100 μM peptide, buffer also containing 100 mM KCl; for specific activity, KDAC6 with putative substrates: 50–200 nM KDAC, 25 °C, pH 7.6, 15–60 min, average ± SD, SD
T1 construct: A pFastbac1 construct containing full-length human KDAC6 (UniProtKB Q9UBN7) with a C-terminal His6 tag; His6 (C); made in house; host or cells: ExpiSf9 insect cells (baculovirus)
T1 sequence (Q9UBN7 1-1215): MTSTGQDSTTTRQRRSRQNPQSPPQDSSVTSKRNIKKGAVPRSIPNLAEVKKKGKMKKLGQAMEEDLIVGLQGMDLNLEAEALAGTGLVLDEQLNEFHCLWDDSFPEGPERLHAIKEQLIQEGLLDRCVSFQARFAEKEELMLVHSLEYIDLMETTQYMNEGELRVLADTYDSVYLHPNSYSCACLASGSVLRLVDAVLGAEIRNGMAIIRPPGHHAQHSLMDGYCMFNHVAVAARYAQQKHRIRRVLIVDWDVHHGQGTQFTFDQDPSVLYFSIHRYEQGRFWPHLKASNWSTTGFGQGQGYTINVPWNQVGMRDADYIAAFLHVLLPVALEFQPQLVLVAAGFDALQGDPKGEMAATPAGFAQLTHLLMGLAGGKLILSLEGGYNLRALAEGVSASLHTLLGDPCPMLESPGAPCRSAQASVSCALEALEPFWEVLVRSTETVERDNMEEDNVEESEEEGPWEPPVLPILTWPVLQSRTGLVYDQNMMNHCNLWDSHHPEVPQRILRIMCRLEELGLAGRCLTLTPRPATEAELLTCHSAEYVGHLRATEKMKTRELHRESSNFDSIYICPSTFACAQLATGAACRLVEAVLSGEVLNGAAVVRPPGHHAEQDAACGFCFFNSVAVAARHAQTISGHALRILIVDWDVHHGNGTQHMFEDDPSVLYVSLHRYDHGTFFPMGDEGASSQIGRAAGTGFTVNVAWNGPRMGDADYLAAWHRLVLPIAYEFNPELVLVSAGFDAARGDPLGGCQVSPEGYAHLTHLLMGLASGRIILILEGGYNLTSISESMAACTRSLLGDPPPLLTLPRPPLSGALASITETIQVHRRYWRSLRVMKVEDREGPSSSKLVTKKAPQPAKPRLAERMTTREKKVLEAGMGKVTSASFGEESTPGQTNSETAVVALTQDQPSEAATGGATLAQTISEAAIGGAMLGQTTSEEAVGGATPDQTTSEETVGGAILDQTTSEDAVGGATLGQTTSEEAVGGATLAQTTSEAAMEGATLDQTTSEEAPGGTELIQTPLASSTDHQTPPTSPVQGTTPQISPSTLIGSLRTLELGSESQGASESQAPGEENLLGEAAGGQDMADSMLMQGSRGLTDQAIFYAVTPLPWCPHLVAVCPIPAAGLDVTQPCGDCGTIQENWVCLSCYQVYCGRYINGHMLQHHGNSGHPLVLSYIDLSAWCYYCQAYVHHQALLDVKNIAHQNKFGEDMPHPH
Method: (§1) Peptide substrates were synthesized to >95% purity (GenScript) with N-terminal acetylation and C-terminal amidation. For endpoint experiments, 100 μM peptide substrates were reacted with 50–200 nM KDAC at 25 °C at pH 7.6 for 15–60 min. Deacetylation was measured using a fluorescamine-based assay that was previously described in detail.[18] Reported raw activity for each enzyme–substrate pair is the average and standard deviation for n ≥ 4 unless otherwise noted. Normalized activity was calculated by defining the activity of each KDAC with the FRK^acWR peptide equal to 1. Statistical significance was determined by calculating p values using two-tailed t-tests, assuming similar variance. The significance threshold was set at p ≤ 0.01 with the Bonferroni correction for multiple testing. Kinetic parameters were determined for a subset of enzyme–substrate pairs. In these experiments, 50–200 nM KDAC was reacted with ≥5 substrate concentrations from 10 to 2500 nM and ≥3 timepoints at intervals of 3–20 min were collected for each substrate concentration. Deacetylation was measured using the same method as the endpoint experiments, and KM and kcat were calculated from the observed activity of each reaction as previously described.[18] Activity assays with peptides for verification of substrate preferences were performed as for endpoint experiments, except in a buffer also containing 100 mM KCl. Statistical analysis of the correlation of the presence of particular substrate residues with activity was performed using Fisher’s exact test with a significance threshold of p ≤ 0.05.
In contrast with the peptides tested thus far, which were all derivatives of a single substrate, these panels consisted of peptides derived from human proteins in which the lysine residue is known to be acetylated in cells.[3],[5],[42],[50]−[72] For each enzyme, peptides were included either because they contained an acetyllysine that has been identified as a putative substrate of the KDAC from published cellular studies and/or because the peptide contained a residue that appeared to drive KDAC activity in our analysis. For KDAC6, we observed that of the set of peptides that were tested, six contained tryptophan or tyrosine directly after the acetyllysine. Remarkably, all of these peptides appeared in the top seven most reactive substrates tested (Table 2). Assuming that phenylalanine would behave similarly to tryptophan and tyrosine, we determined that there was a statistically significant correlation between whether or not a peptide was deacetylated by KDAC6 and the presence of tyrosine, tryptophan, or phenylalanine in the +1 position (p = 0.011). […] Thus, our conclusion that the presence of these aromatic residues in the +1 position relative to the acetyllysine is a major factor promoting KDAC6 activity has predictive utility and provides some understanding of the underlying mechanistic basis.

[2] = target: T2, Full-length human KDAC8 (Homo sapiens, UniProt Q9BY41); experiment: Activity of KDAC8 with putative substrate peptides (verification of substrate preferences); format: biochemical; conditions: endpoint, 100 μM peptide, buffer also containing 100 mM KCl; for specific activity, KDAC8 with putative substrates (no activity above limit): limit of reliable detection 0.0004 s^–1; for specific activity, KDAC8 with putative substrates: 50–200 nM KDAC, 25 °C, pH 7.6, 15–60 min, average ± SD, SD
T2 construct: Full-length human KDAC8 (UniProtKB Q9BY41) was recombinantly expressed fused to a C-terminal His6 tag; TEV protease cleavage site (C); His6 (C); made in house; host or cells: Escherichia coli
T2 sequence (Q9BY41 1-377): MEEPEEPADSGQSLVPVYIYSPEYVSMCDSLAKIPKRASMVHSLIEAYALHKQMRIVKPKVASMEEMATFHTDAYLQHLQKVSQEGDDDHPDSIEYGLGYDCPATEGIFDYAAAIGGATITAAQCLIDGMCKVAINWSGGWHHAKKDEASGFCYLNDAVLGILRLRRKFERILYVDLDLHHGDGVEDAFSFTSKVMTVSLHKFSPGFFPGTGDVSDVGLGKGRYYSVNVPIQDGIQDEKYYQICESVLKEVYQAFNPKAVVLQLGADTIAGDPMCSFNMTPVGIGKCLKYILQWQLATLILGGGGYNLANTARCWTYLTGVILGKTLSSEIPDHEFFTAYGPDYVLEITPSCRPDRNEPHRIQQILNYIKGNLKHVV
Method: as §1
We performed a similar experiment for KDAC8, this time using substrates that have been described as potential KDAC8 substrates from cell-based studies or which contained residues in the +1 and/or +2 positions that were identified to enhance activity of KDAC8. […] In addition, we also considered phenylalanine, as we did for KDAC6. Here, we looked at the correlation between peptides having any of these features and activity. While the result was less striking than for KDAC6, there was still a positive correlation between the presence of the identified residues and activity (Table 3; p = 0.048). Although we have identified only a portion of the interactions that likely contribute to substrate selectivity for these enzymes, these interactions correlate with a statistically significant increase in activity with peptides from potential biological substrates in an unbiased background of residues in other positions.

| specific activity, KDAC6 with putative substrates [1] [s^–1] | specific activity, KDAC8 with putative substrates [2] [s^–1] | Substance | specific activity, KDAC8 with putative substrates (no activity above limit) [2] | specific activity, KDAC6 with putative substrates (no activity above limit) ([1]; limit of reliable detection 0.0013 s^–1) |
| --- | --- | --- | --- | --- |
| 0.024 ± 0.013 |  | SHLK^acAHL [acetyllysine peptide from transcription factor Sp7 (Q8TDD2)] | – (– indicates no activity above the limit of reliable detection (0.0004 s^–1)) |  |
| 0.013 ± 0.009 |  | SDMK^acHWP [acetyllysine peptide from heat shock 70 kDa protein 1A/1B (P0DMV8/P0DMV9)] | – (– indicates no activity above the limit of reliable detection (0.0004 s^–1)) |  |
|  | 0.0035 ± 0.0021 | PLWK^acGIG [acetyllysine peptide from regulator of nonsense transcripts 1 (Q92900)] |  |  |
|  |  | GTAK^acSVT [acetyllysine peptide from cellular tumor antigen p53 (P04637)] | – (– indicates no activity above the limit of reliable detection (0.0004 s^–1)) | – (– indicates no activity above the limit of reliable detection (0.0013 s^–1)) |
|  |  | VGGK^acDFE [acetyllysine peptide from PDZ and LIM domain protein 1 (O00151)] | – (– indicates no activity above the limit of reliable detection (0.0004 s^–1)) |  |
| 0.055 ± 0.024 |  | GVGK^acYIN [acetyllysine peptide from RING-type E3 ubiquitin-protein ligase PPIL2 (Q13356)] | – (– indicates no activity above the limit of reliable detection (0.0004 s^–1)) |  |
| 0.024 ± 0.005 |  | LSGK^acEIN [acetyllysine peptide from serine/arginine-rich splicing factor 5 (Q13243)] | – (– indicates no activity above the limit of reliable detection (0.0004 s^–1)) |  |
|  | 0.0030 ± 0.0016 | RFTK^acCLR [acetyllysine peptide from steroid hormone receptor ERR1 (P11474)] |  |  |
| 0.14 ± 0.03 | 0.020 ± 0.006 | QLSK^acWP [acetyllysine peptide from forkhead box protein O3 (O43524)] |  |  |
|  | 0.015 ± 0.014 | RMFK^acQFN [acetyllysine peptide from transcription intermediary factor 1-β (Q13263)] |  |  |
|  |  | EIGK^acTLA | – (– indicates no activity above the limit of reliable detection (0.0004 s^–1)) |  |
|  | 0.0006 ± 0.0004 | LGGK^acQRA [acetyllysine peptide from retinoic acid-induced protein 1 (Q7Z5J4)] |  |  |
|  |  | EVGK^acLLN [acetyllysine peptide from centromere protein F (P49454)] | – (– indicates no activity above the limit of reliable detection (0.0004 s^–1)) |  |
| 0.20 ± 0.09 | 0.0029 ± 0.0004 | AFGK^acYCR |  |  |
|  | 0.0031 ± 0.0015 | RIPK^acEQW [acetyllysine peptide from ATP-dependent 6-phosphofructokinase, platelet type (Q01813)] |  |  |
| 0.100 ± 0.009 | 0.007 ± 0.003 | GRAK^acYWL [acetyllysine peptide from E3 SUMO-protein ligase RanBP2 (P49792)] |  |  |
| 0.10 ± 0.04 | 0.0011 ± 0.0006 | TGNK^acYVP [acetyllysine peptide from tubulin β-3 chain (Q13509)] |  |  |
